Reference: patent US6284768A, “Src family SH2 domain inhibitors” (Boehringer Ingelheim Pharmaceuticals, Inc., priority 1999, dated 2001)
Read-outs that look alike come from different tables or passages of the source.

Columns and labels:
[1] = molecular target: T1, p56lck GST-SH2 (lck SH2 domain) (Homo sapiens, UniProt P06239); assay: Receptor-ligand equilibrium binding constants by surface plasmon resonance (biosensor), lck SH2 domain
T1 construct: GST (N)

[2] = test system: Inter-leukin 2 (IL-2) production by activated Human Primary T Lymphocytes; assay: Primary T cell assay: inhibition of IL-2 production by activated human primary CD4 positive T lymphocytes; type: cell-based; settings: Table 5, mean IC50 value, CD4 positive T cells activated with anti-CD3/anti-CD28, IL-2 by ELISA, read-out: IC50 (blocking IL-2 production)
Protocol: Summary of Primary T Cell Assay.
Inhibitors of the lck SH2 domain were assayed for their ability to block Inter-leukin 2 (IL-2) production by activated Human Primary T Lymphocytes. Peripheral blood mononuclear cells were isolated from whole blood by centrifugation in ficoll-Pague partitioning medium. CD4 positive cells were purified using negative selection. […] The compounds, at the appropriate dilutions, were added, and the cells were incubated for 60 minutes at 37° C. The CD4 positive T cells were then activated by the addition of anti-CD3 (60 ng/mL), anti CD28 (500 ng/mL) and goat anti mouse IgG coated beads, and incubated overnight at 37° C. The cells were pelleted, and the supernatents assayed for IL-2 by ELISA.
As SH2 domain containing proteins are intracellular, any therapeutic agent must be able to cross biological membranes. […] These characteristics may be quantified by observing inhibition in IL-2 production in human blood CD4 positive T-lymphocytes after T cell receptor and CD28 cross-linking.

[3] = Table 1, compounds of formula (II)

T1 sequence (P06239 127-224 limits assumed): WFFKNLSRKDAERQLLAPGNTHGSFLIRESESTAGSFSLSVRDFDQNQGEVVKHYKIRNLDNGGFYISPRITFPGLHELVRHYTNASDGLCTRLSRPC

Row | SMILES | Kd [1, 3] | IC50 ([2]; Homo sapiens, CD4 positive) | Kd ([1]; Table 2, compounds of formula (III)) | IC50 [2]
1 | CCC(C(=O)N[C@@H](Cc1ccc(C(C)(C)C(=O)O)cc1)C(=O)Nc1c(C)ccn(Cc2ccc(OC)cc2)c1=O)c1ccc2ccccc2c1 (stereo partly drawn) [Compound 109] | 0.33 µM | 78 µM |  | 
2 | CCOc1ccc(Cn2ccc(C)c(NC(=O)C(Cc3ccc(C(C)(C)C(=O)O)cc3)NC(=O)C(C)(C)c3cccc4ccccc34)c2=O)cc1 (stereo not drawn) [Compound 141] | 8.8 µM | 49 µM |  | 
3 | CCc1cn(Cc2ccc(OC)cc2)c(=O)c(NC(=O)C(Cc2ccc(C(C)(C)C(=O)O)cc2)NC(=O)Cc2ccc3ccccc3c2)c1C (stereo not drawn) [Compound 222] | 1.2 µM | 69 µM |  | 
4 | CCOc1ccc(Cn2ccc(C)c(NC(=O)C(Cc3ccc(C(C)(C)C(=O)O)cc3)NC(=O)C(C)(C)c3ccc4ccccc4c3)c2=O)cc1 (stereo not drawn) [Compound 139] | 2.9 µM | 56 µM |  | 
5 | Cc1ccn(Cc2ccc3c(c2)OCO3)c(=O)c1NC(=O)C(Cc1ccc(C(C)(C)C(=O)O)cc1)NC(=O)Cc1ccc2ccccc2c1 (stereo not drawn) [Compound 155] | 0.37 µM | 76 µM |  | 
6 | COc1ccc(C(C)n2ccc(C)c(NC(=O)C(Cc3ccc(C(C)(C)C(=O)O)cc3)NC(=O)Cc3cccc4ccccc34)c2=O)cc1 (stereo not drawn) [Compound 178] | 0.68 µM | 65 µM |  | 
7 | COc1ccc(Cn2ccc(C)c(NC(=O)C(Cc3ccc(C4(C(=O)O)CCCC4)cc3)NC(=O)Cc3ccc4ccccc4c3)c2=O)cc1 (racemic) [Compound 108] | 2.8 µM | 69 µM |  | 
8 | COc1ccc(Cn2ncc(C)c(NC(=O)C(Cc3ccc(C(C)(C)C(=O)O)cc3)NC(=O)Cc3ccc4ccccc4c3)c2=O)cc1 (racemic) [Compound 242, 4-[2'-(R,S)-(2""-Naphthylacetyl)amino-3'-[4"-(1'"-carboxy-1'"-methyl)ethyl]benzene]propanoylamino-2-(4-methoxybenzyl)-5-methyl-3-pyridazinone] |  | 60 µM | 0.53 µM | 
9 | COc1ccc(Cn2ccc(C)c(NC(=O)C(Cc3ccc(C(C)(C)C(=O)O)cc3)NC(=O)Cc3ccc(Oc4ccccc4)cc3)c2=O)cc1 (stereo not drawn) [Compound 172] | 0.66 µM | 96 µM |  | 
10 | CCCCCCn1cc(-c2ccccc2)c(C)c(NC(=O)C(Cc2ccc(C(C)(C)C(=O)O)cc2)NC(=O)Cc2ccc3ccccc3c2)c1=O (stereo not drawn) [Compound 231] | < 8 µM | 57 µM |  | 
11 | CCCCCCn1ccc(C)c(NC(=O)C(Cc2ccc(C(C)(C)C(=O)O)cc2)NC(=O)Cc2ccc(OC)cc2)c1=O (stereo not drawn) [Compound 208] | 0.8 µM | 279 µM |  | 
12 | COc1ccc(Cn2ccc(C)c(NC(=O)[C@H](Cc3ccc(C(C)(C)C(=O)O)cc3)NC(=O)Cc3cccc4ccccc34)c2=O)cc1 [Compound 2, 3-[2'-(S)-(1"-Naphthylacetyl)amino-3'-[4'"-(1'"-carboxy-1'"-methyl)ethyl]benzene]propanoylamino-1-(4-methoxybenzyl)-4-methyl-2-pyridone] | 0.57 µM | 96 µM |  | 
13 | Cc1ccn(Cc2ccc(C(F)(F)F)cn2)c(=O)c1NC(=O)[C@H](Cc1ccc(C(C)(C)C(=O)O)cc1)NC(=O)Cc1ccc2ccccc2c1 [Compound 128] | 1.6 µM | 207 µM |  | 
14 | COc1ccc(C(C)n2ccc(C)c(NC(=O)C(Cc3ccc(C(C)(C)C(=O)O)cc3)NC(=O)C(C)(C)c3ccc4ccccc4c3)c2=O)cc1 (stereo not drawn) [Compound 184] | 1.3 µM | 53 µM |  | 
15 | Cc1ccn(CCCc2ccccc2)c(=O)c1NC(=O)C(Cc1ccc(C(C)(C)C(=O)O)cc1)NC(=O)Cc1cccc2ccccc12 (stereo not drawn) [Compound 182] | 2.1 µM | 64 µM |  | 
16 | COc1ccc(Cn2ccc(C)c(NC(=O)[C@H](Cc3ccc(C(C)(C)C(=O)O)cc3)NC(=O)N(C)c3cccc4ccccc34)c2=O)cc1 [Compound 133] | 0.78 µM | 112 µM |  | 
17 | CCC(CC)(C(=O)N[C@@H](Cc1ccc(C(C)(C)C(=O)O)cc1)C(=O)Nc1c(C)ccn(Cc2ccc(OC)cc2)c1=O)c1ccc2ccccc2c1 [Compound 123] | 0.84 µM | 35 µM |  | 
18 | COc1ccc(Cn2ccc(C)c(NC(=O)[C@H](Cc3ccc(C(C)(C)C(=O)O)cc3)NC(=O)Cc3ccc4ccccc4c3)c2=O)cc1 [Compound 97] | 0.14 µM | 113 µM |  | 
19 | CCOc1ccc(Cn2ccc(C)c(NC(=O)C(Cc3ccc(C(C)(C)C(=O)O)cc3)NC(=O)Cc3cccc4ccccc34)c2=O)cc1 (stereo not drawn) [Compound 140] | 0.63 µM | 82 µM |  | 
20 | COc1ccc(Cn2ccc(C)c(NC(=O)C(Cc3ccc(C(C)(C)C(=O)O)cc3)NC(=O)Cc3ccc4ccccc4c3)c2=O)cc1C (racemic) [Compound 149, 3-[2'-(R,S)-(2""-Naphthylacetyl)amino-3'-[4"-(1'"-carboxy-1"-methyl)ethyl]benzene]propanoylamino-1-(4-methoxy-3-methylbenzyl)-4-methyl-2-pyridone] | 3.8 µM | 54 µM |  | 
21 | COc1ccc(Cn2ccc(C)c(N(C)C(=O)C(Cc3ccc(C(C)(C)C(=O)O)cc3)NC(=O)Cc3ccc4ccccc4c3)c2=O)cc1 (stereo not drawn) [Compound 151] | > 200 µM | 67 µM |  | 
22 | Cc1ccn(Cc2ccccc2Oc2ccccc2)c(=O)c1NC(=O)C(Cc1ccc(C(C)(C)C(=O)O)cc1)NC(=O)Cc1ccc2ccccc2c1 (stereo not drawn) [Compound 156] | 4 µM | 46 µM |  | 
23 | COc1ccc(Cn2ccc(C)c(NC(=O)[C@H](Cc3ccc(C4(C(=O)O)CC4)cc3)NC(=O)Cc3ccc4ccccc4c3)c2=O)cc1 [Compound 218, 3-[2'-(S)-(2""-Naphthylacetyl)amino-3'-[4"-(1'"-carboxy)cyclopropyl]benzene]propanoylamino-1-(4-methoxybenzyl)-4-methyl-2-pyridone] | 1.8 µM | 90 µM |  | 
24 | COc1ccc(Cn2ccc(C)c(NC(=O)[C@H](Cc3ccc(C(C)(C)C(=O)O)cc3)NC(=O)[C@@H](C)c3ccc4ccccc4c3)c2=O)cc1 [Compound 46] | 2.3 µM | 58 µM |  | 
25 | Cc1ccn(CCCCC(C)C)c(=O)c1NC(=O)C(Cc1ccc(C(C)(C)C(=O)O)cc1)NC(=O)Cc1ccc2ccccc2c1 (stereo not drawn) [Compound 145] | 0.84 µM | 56 µM |  | 
26 | Cc1ccn(CCc2ccccc2)c(=O)c1NC(=O)C(Cc1ccc(C(C)(C)C(=O)O)cc1)NC(=O)Cc1ccc2ccccc2c1 (stereo not drawn) [Compound 200] | 2.2 µM | 87 µM |  | 

The remaining lines, values ahead:

Row | Kd [1, 3] | IC50 ([2]; Homo sapiens, CD4 positive) | Kd ([1]; Table 2, compounds of formula (III)) | IC50 [2] | SMILES
27 | 0.47 µM | 82 µM |  |  | CCC(CC)(C(=O)O)c1ccc(C[C@H](NC(=O)Cc2ccc3ccccc3c2)C(=O)Nc2c(C)ccn(Cc3ccc(OC)cc3)c2=O)cc1 [Compound 106]
28 | 0.78 µM | 41 µM |  |  | COc1ccc(Cn2ccc(C)c(NC(=O)C(Cc3ccc(C(C)(C)C(=O)O)cc3)NC(=O)C(C)(C)c3ccc(C(C)(C)C)cc3)c2=O)cc1 (stereo not drawn) [Compound 186]
29 | 1.5 µM | 42 µM |  |  | COc1ccc(Cn2ccc(C)c(NC(=O)[C@H](Cc3ccc(C(C)(C)C(=O)O)cc3)NC(=O)C(C)(C)c3ccc(CC(C)C)cc3)c2=O)cc1 [Compound 124]
30 | 0.19 µM | 92 µM |  |  | CCCCCCn1ccc(C)c(NC(=O)C(Cc2ccc(C(C)(C)C(=O)O)cc2)NC(=O)Cc2ccc(C(F)(F)F)cc2)c1=O (stereo not drawn) [Compound 209]
31 | 1.1 µM | 63 µM |  |  | Cc1ccn(CC2CCCCC2)c(=O)c1NC(=O)C(Cc1ccc(C(C)(C)C(=O)O)cc1)NC(=O)Cc1ccc2ccccc2c1 (stereo not drawn) [Compound 195]
32 | 2 µM | 166 µM |  |  | Cc1ccn(CC2(c3ccccc3)CC2)c(=O)c1NC(=O)C(Cc1ccc(C(C)(C)C(=O)O)cc1)NC(=O)Cc1cccc2ccccc12 (stereo not drawn) [Compound 213]
33 | 0.84 µM | 181 µM |  |  | COc1ccc(Cn2ccc(C)c(NC(=O)[C@H](Cc3ccc(C(C)(C)C(=O)O)cc3)NC(=O)Cc3ccc(NCc4ccccc4)cc3)c2=O)cc1 [Compound 130]
34 | 190 µM |  |  | 193 µM | COc1ccc(Cn2ccc(C)c(NC(=O)C(Cc3ccc(C(C)(C)C(=O)O)cc3)NC(=O)Cc3cccc4ccccc34)c2=O)cc1 (stereo not drawn) [Compound 216]
35 | 0.21 µM | 156 µM |  |  | COc1ccc(Cn2ccc(C)c(NC(=O)[C@H](Cc3ccc(C(C)(C)C(=O)O)cc3)NC(=O)Cc3ccc(C(C)C)cc3)c2=O)cc1 [Compound 94]
36 | 0.51 µM | 75 µM |  |  | CCCCCCn1ccc(C)c(NC(=O)C(Cc2ccc(C(C)(C)C(=O)O)cc2)NC(=O)Cc2ccc3ccccc3c2)c1=O (stereo not drawn) [Compound 137]
37 | 1.2 µM | 45 µM |  |  | Cc1ccn(Cc2ccc3c(c2)OCO3)c(=O)c1NC(=O)C(Cc1ccc(C(C)(C)C(=O)O)cc1)NC(=O)C(C)(C)c1ccc2ccccc2c1 (stereo not drawn) [Compound 154]
38 | 4.6 µM | 60 µM |  |  | CCc1ccc(Cn2ccc(C)c(NC(=O)C(Cc3ccc(C(C)(C)C(=O)O)cc3)NC(=O)Cc3ccc4ccccc4c3)c2=O)cc1 (stereo not drawn) [Compound 150]
39 | 1.9 µM | 136 µM |  |  | CCCCCCn1ccc(C)c(NC(=O)C(Cc2ccc(C(C)(C)C(=O)O)cc2)NC(=O)COc2ccccc2)c1=O (stereo not drawn) [Compound 205]
40 | 1.2 µM | 117 µM |  |  | Cc1ccn(CC2(c3ccccc3)CC2)c(=O)c1NC(=O)C(Cc1ccc(C(C)(C)C(=O)O)cc1)NC(=O)Cc1ccc2ccccc2c1 (stereo not drawn) [Compound 214]
41 | 1.3 µM | 35 µM |  |  | CCOc1ccc(Cn2ccc(C)c(NC(=O)C(Cc3ccc(C(C)(C)C(=O)O)cc3)NC(=O)Cc3ccc4ccccc4c3)c2=O)cc1 (stereo not drawn) [Compound 135]
42 | 0.61 µM | 61 µM |  |  | COc1ccc(Cn2ccc(C)c(NC(=O)[C@H](Cc3ccc(C(C)(C)C(=O)O)cc3)NC(=O)C(C)(C)c3ccc(C(C)C)cc3)c2=O)cc1 [Compound 118]
